In the supplement of paper PMC10307832:

Columns and labels:
Test in all cases: relative viability (nuclei count vs DMSO), 5 days (fraction); higher = more cells survive
ABC-1 = test system: ABC-1
Outline: (§1)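 One day after seeding in 1536-well plates, lung cancer cell lines were dosed by pin tool. Dosing was either single-drug or a fixed anchor-drug dose plus five library-drug doses (not always all listed) in √10 steps. After 5 days, nuclei were stained in one fix-and-stain step and counted on 4× images, and relative viability is the nuclei count of treated wells over that of vehicle wells, given as the median of duplicate plates.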

EKVX = test system: EKVX
Outline: as §1

HCC-44 = test system: HCC-44
Outline: as §1

NCI-H1623 = test system: NCI-H1623
Outline: as §1

NCI-H1993 = test system: NCI-H1993
Outline: as §1

NCI-H2085 = test system: NCI-H2085
Outline: as §1

NCI-H2126 = test system: NCI-H2126
Outline: as §1

RERF-LC-KJ = test system: RERF-LC-KJ
Outline: as §1

In the case of O=c1cc(-c2cccc3c2Sc2ccccc2S3)oc(N2CCOCC2)c1 + CCNC(=O)c1noc(-c2cc(C(C)C)c(O)cc2O)c1-c1ccc(CN2CCOCC2)cc1 [Luminespib] (partner 0.01 µM), the relative viability (ABC-1; first compound 0.08 µM) was 0.535, the relative viability (ABC-1; first compound 0.253 µM) was 0.275 and the relative viability (ABC-1; first compound 0.8 µM) was 0.91. It also gave a relative viability (ABC-1; first compound 2.53 µM) of 0.529, a relative viability (ABC-1; first compound 8 µM) of 0.532 and a relative viability (EKVX; first compound 0.08 µM) of 0.829. It also gave a relative viability (EKVX; first compound 0.253 µM) of 0.924, a relative viability (EKVX; first compound 0.8 µM) of 0.846 and a relative viability (EKVX; first compound 2.53 µM) of 0.883. For the same molecule, the relative viability (EKVX; first compound 8 µM) was 0.853, the relative viability (HCC-44; first compound 0.08 µM) was 1.17 and the relative viability (HCC-44; first compound 0.253 µM) was 0.971. For the same molecule, the relative viability (HCC-44; first compound 2.53 µM) was 0.993, the relative viability (HCC-44; first compound 8 µM) was 1.04 and the relative viability (NCI-H1623; first compound 0.08 µM) was 0.615. The relative viability (NCI-H1623; first compound 0.253 µM) was 0.589, the relative viability (NCI-H1623; first compound 0.8 µM) was 0.472 and the relative viability (NCI-H1623; first compound 2.53 µM) was 0.411. It also gave a relative viability (NCI-H1623; first compound 8 µM) of 0.495, a relative viability (NCI-H1993; first compound 0.08 µM) of 0.628 and a relative viability (NCI-H1993; first compound 0.253 µM) of 0.934. For the same molecule, the relative viability (NCI-H1993; first compound 0.8 µM) was 0.778, the relative viability (NCI-H1993; first compound 2.53 µM) was 0.724 and the relative viability (NCI-H1993; first compound 8 µM) was 0.9. For the same molecule, the relative viability (NCI-H2085; first compound 0.08 µM) was 0.408, the relative viability (NCI-H2085; first compound 0.253 µM) was 0.526 and the relative viability (NCI-H2085; first compound 0.8 µM) was 0.39. For the same molecule, the relative viability (NCI-H2085; first compound 2.53 µM) was 0.437, the relative viability (NCI-H2085; first compound 8 µM) was 0.354 and the relative viability (NCI-H2126; first compound 0.08 µM) was 0.791. It also gave a relative viability (NCI-H2126; first compound 0.253 µM) of 1, a relative viability (NCI-H2126; first compound 0.8 µM) of 0.963 and a relative viability (NCI-H2126; first compound 2.53 µM) of 0.822. The relative viability (NCI-H2126; first compound 8 µM) was 0.836, the relative viability (RERF-LC-KJ; first compound 0.08 µM) was 1.06 and the relative viability (RERF-LC-KJ; first compound 0.253 µM) was 1.56. The relative viability (RERF-LC-KJ; first compound 0.8 µM) was 1.24, the relative viability (RERF-LC-KJ; first compound 2.53 µM) was 1.35 and the relative viability (RERF-LC-KJ; first compound 8 µM) was 1.42.

With O=c1cc(N2CCOCC2)oc2c(-c3cccc4c3sc3ccccc34)cccc12 + Cc1nc(Nc2ncc(C(=O)Nc3c(C)cccc3Cl)s2)cc(N2CCN(CCO)CC2)n1 [Dasatinib] (partner 0.075 µM) the relative viability (ABC-1; first compound 0.01 µM) was 0.569, the relative viability (ABC-1; first compound 0.03162 µM) was 0.561 and the relative viability (ABC-1; first compound 0.1 µM) was 0.582. For the same molecule, the relative viability (ABC-1; first compound 0.3162 µM) was 0.488, the relative viability (ABC-1; first compound 1 µM) was 0.567 and the relative viability (EKVX; first compound 0.01 µM) was 0.528. It also gave a relative viability (EKVX; first compound 0.03162 µM) of 0.469, a relative viability (EKVX; first compound 0.1 µM) of 0.672 and a relative viability (EKVX; first compound 0.3162 µM) of 0.607. The relative viability (EKVX; first compound 1 µM) was 0.605, the relative viability (NCI-H1623; first compound 0.01 µM) was 0.456 and the relative viability (NCI-H1623; first compound 0.03162 µM) was 0.517. It also gave a relative viability (NCI-H1623; first compound 0.1 µM) of 0.402, a relative viability (NCI-H1623; first compound 0.3162 µM) of 0.5 and a relative viability (NCI-H1623; first compound 1 µM) of 0.438. It also gave a relative viability (NCI-H1993; first compound 0.01 µM) of 0.603, a relative viability (NCI-H1993; first compound 0.03162 µM) of 0.595 and a relative viability (NCI-H1993; first compound 0.1 µM) of 0.657. For the same molecule, the relative viability (NCI-H1993; first compound 0.3162 µM) was 0.554, the relative viability (NCI-H1993; first compound 1 µM) was 0.597 and the relative viability (NCI-H2085; first compound 0.01 µM) was 0.267. The relative viability (NCI-H2085; first compound 0.03162 µM) was 0.241, the relative viability (NCI-H2085; first compound 0.1 µM) was 0.253 and the relative viability (NCI-H2085; first compound 0.3162 µM) was 0.225. The relative viability (NCI-H2085; first compound 1 µM) was 0.219, the relative viability (NCI-H2126; first compound 0.01 µM) was 0.66 and the relative viability (NCI-H2126; first compound 0.03162 µM) was 0.631. The relative viability (NCI-H2126; first compound 0.1 µM) was 0.609, the relative viability (NCI-H2126; first compound 0.3162 µM) was 0.611 and the relative viability (NCI-H2126; first compound 1 µM) was 0.533. For the same molecule, the relative viability (RERF-LC-KJ; first compound 0.01 µM) was 0.85, the relative viability (RERF-LC-KJ; first compound 0.03162 µM) was 0.918 and the relative viability (RERF-LC-KJ; first compound 0.1 µM) was 0.934. For the same molecule, the relative viability (RERF-LC-KJ; first compound 0.3162 µM) was 0.769 and the relative viability (RERF-LC-KJ; first compound 1 µM) was 0.818.

Molecule CCN(CC)CCCCNc1ncc2cc(-c3cc(OC)cc(OC)c3)c(NC(=O)NC(C)(C)C)nc2n1 + Cc1nc(Nc2ncc(C(=O)Nc3c(C)cccc3Cl)s2)cc(N2CCN(CCO)CC2)n1 [Dasatinib] (partner 0.075 µM) has a relative viability (ABC-1; first compound 0.01 µM) of 0.617, a relative viability (ABC-1; first compound 0.03162 µM) of 0.541 and a relative viability (ABC-1; first compound 0.1 µM) of 0.618. It also gave a relative viability (ABC-1; first compound 0.3162 µM) of 0.548, a relative viability (ABC-1; first compound 1 µM) of 0.535 and a relative viability (EKVX; first compound 0.01 µM) of 0.547. The relative viability (EKVX; first compound 0.03162 µM) was 0.604, the relative viability (EKVX; first compound 0.1 µM) was 0.57 and the relative viability (EKVX; first compound 0.3162 µM) was 0.563. It also gave a relative viability (EKVX; first compound 1 µM) of 0.349, a relative viability (NCI-H1623; first compound 0.01 µM) of 0.504 and a relative viability (NCI-H1623; first compound 0.03162 µM) of 0.449. For the same molecule, the relative viability (NCI-H1623; first compound 0.1 µM) was 0.579, the relative viability (NCI-H1623; first compound 0.3162 µM) was 0.571 and the relative viability (NCI-H1623; first compound 1 µM) was 0.516. It also gave a relative viability (NCI-H1993; first compound 0.01 µM) of 0.31, a relative viability (NCI-H1993; first compound 0.03162 µM) of 0.604 and a relative viability (NCI-H1993; first compound 0.1 µM) of 0.611. It also gave a relative viability (NCI-H1993; first compound 0.3162 µM) of 0.604, a relative viability (NCI-H1993; first compound 1 µM) of 0.536 and a relative viability (NCI-H2085; first compound 0.01 µM) of 0.251. For the same molecule, the relative viability (NCI-H2085; first compound 0.03162 µM) was 0.181, the relative viability (NCI-H2085; first compound 0.1 µM) was 0.278 and the relative viability (NCI-H2085; first compound 0.3162 µM) was 0.231. For the same molecule, the relative viability (NCI-H2085; first compound 1 µM) was 0.216, the relative viability (NCI-H2126; first compound 0.01 µM) was 0.586 and the relative viability (NCI-H2126; first compound 0.03162 µM) was 0.603. It also gave a relative viability (NCI-H2126; first compound 0.1 µM) of 0.648, a relative viability (NCI-H2126; first compound 0.3162 µM) of 0.77 and a relative viability (NCI-H2126; first compound 1 µM) of 0.53. For the same molecule, the relative viability (RERF-LC-KJ; first compound 0.01 µM) was 0.783, the relative viability (RERF-LC-KJ; first compound 0.03162 µM) was 1 and the relative viability (RERF-LC-KJ; first compound 0.1 µM) was 0.843. It also gave a relative viability (RERF-LC-KJ; first compound 0.3162 µM) of 0.947 and a relative viability (RERF-LC-KJ; first compound 1 µM) of 0.738.
